Results on 3 compounds are retold here after ChEMBL document CHEMBL1153920, “4,4-Difluorinated analogues of l-arginine and N(G)-hydroxy-l-arginine as mechanistic probes for nitric oxide synthase” (Bioorg Med Chem Lett, 2009).

Assay [1] deals with T1, Nitric oxide synthase, inducible (Homo sapiens, UniProt P35228). The experiment in a line: Binding affinity to iNOS with heme domain construct assessed as spectral binding constant by spectral assay.
Assay [2] addresses T1, Nitric oxide synthase, inducible. The assay is described as follows: Activity of iNOS assessed as increase in Kcat by indirect spectral assay relative to N'G-hydroxy-L-arginine.

T1 sequence (P35228 whole entry, the tested form may be a part): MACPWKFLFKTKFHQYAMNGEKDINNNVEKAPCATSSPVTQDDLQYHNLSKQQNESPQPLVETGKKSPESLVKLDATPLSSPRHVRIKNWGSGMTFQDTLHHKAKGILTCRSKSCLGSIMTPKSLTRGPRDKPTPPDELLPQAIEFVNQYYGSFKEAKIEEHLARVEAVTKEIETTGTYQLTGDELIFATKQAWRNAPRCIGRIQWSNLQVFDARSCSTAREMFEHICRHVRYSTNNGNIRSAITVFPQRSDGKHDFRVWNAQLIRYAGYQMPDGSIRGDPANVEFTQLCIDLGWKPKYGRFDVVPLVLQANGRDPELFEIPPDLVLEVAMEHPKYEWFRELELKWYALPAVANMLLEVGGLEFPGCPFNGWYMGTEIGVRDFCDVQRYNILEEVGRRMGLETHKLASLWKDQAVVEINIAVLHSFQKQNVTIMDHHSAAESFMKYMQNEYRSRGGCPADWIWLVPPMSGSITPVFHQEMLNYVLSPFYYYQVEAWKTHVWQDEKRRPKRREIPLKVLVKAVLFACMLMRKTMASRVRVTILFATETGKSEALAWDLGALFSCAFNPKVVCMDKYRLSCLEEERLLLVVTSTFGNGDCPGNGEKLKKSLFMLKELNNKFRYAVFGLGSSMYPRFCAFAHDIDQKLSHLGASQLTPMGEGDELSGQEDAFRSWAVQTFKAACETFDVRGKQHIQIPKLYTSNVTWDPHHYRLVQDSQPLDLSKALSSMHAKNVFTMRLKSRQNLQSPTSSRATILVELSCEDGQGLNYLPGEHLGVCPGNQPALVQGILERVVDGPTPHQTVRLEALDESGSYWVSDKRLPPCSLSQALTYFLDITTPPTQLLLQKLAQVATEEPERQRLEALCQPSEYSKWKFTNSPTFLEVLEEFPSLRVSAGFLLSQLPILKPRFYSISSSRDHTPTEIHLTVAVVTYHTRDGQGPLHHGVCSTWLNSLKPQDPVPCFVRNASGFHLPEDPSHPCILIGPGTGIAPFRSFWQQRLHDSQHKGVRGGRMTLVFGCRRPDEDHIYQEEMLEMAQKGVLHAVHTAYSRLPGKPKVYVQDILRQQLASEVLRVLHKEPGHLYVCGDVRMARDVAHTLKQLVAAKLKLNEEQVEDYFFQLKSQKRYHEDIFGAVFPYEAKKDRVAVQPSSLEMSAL

In the case of `N=C(NO)NCCC[C@H](N)C(=O)O`, the Kd (usually the equilibrium constant for the complex coming apart) in assay [1] is 5.1 µM. Turning to `N=C(N)NCC(F)(F)C[C@H](N)C(=O)O`, the Activity in assay [2] was determined as 10%. The Kd in assay [1] is 3100 µM. Regarding `N/C(=N\O)NCC(F)(F)C[C@H](N)C(=O)O`, in assay [2], the Activity is 30%. Moreover, the Kd in assay [1] was 116 µM.
